“Also recorded” adds a separate entry of the source. Where two headings read alike, the source gives them in different places.
Key:
[1] = molecular target: T1, murine κ opioid receptor (KOR) (Mus musculus, UniProt P33534); test: 3H-naltrexone radioligand competition binding, KOR membranes
[2] = molecular target: full length human μ opioid receptor (MOR) (Homo sapiens, UniProt P35372); test: 3H-naltrexone radioligand competition binding, MOR membranes
murine KOR = murine KOR (Mus musculus, UniProt P33534); test: Live cell GloSensor cAMP assay, antagonist mode, KOR-expressing HEK293T cells; conditions: for KOR Signaling: GloSensor cAMP, HEK293T, 10 μM forskolin, salvinorin A at EC80
human MOR = human MOR (Homo sapiens, UniProt P35372); test: Live cell GloSensor cAMP assay, antagonist mode, MOR-expressing HEK293T cells; conditions: 10 μM forskolin, DAMGO at EC80
[3] = molecular target: T1, murine κ opioid receptor (KOR); test: biochemical
C56BL/6 mice [4] = system: C56BL/6 mice
C56BL/6 mice [5] = test: Opioid withdrawal symptoms assay in morphine tolerant mice; conditions: 1 h after morphine 20 mg/kg, naloxone 10 mg/kg, #020_E1 30 mg/kg
C56BL/6 mice [6] = test: Conditioned place aversion in morphine tolerant mice
[7] = read-out: MOR Ki binding affinity, 3H-naltrexone displacement, mean from three dose response experiments
[8] = read-out: KOR Ki binding affinity, 3H-naltrexone displacement, mean from three dose response experiments
[9] = read-out: MOR Ki estimate (†), calculated from the Cheng–Prusoff equation based on a single point at 33 μM ligand

3H-naltrexone [reference compound]
Kd ([1]; read-out: Kd of the radioligand in KOR membrane preparation, saturation experiments, nonspecific binding with 33 μM unlabeled naloxone): 2.71 nM
Kd ([2]; read-out: Kd of the radioligand in MOR membrane preparation, saturation experiments, nonspecific binding with 33 μM unlabeled naloxone): 1.97 nM

CCN1[C@@H]2C=C(C)[C@@](C)(C[C@H]2C(=O)OC)[C@@H]1C (racemic) [(±)-#001]
Ki [2, 7]: 7100 nM

CCN1CC(N2[C@@H]3C=C(c4ccccc4O)[C@@](C)(C[C@H]3C(=O)OC)[C@@H]2C)C1 (racemic) [(±)-#05]
Ki [1, 8]: 8000 nM
Ki [2, 9]: 16000 nM

CCCCC1=C[C@@H]2[C@H](C(=O)OC)C[C@@]1(C)[C@H](C)N2C[C@@H]1CCO1 (racemic) [(±)-#09]
Ki ([1]; read-out: KOR Ki estimate (†), calculated from the Cheng–Prusoff equation based on a single point at 33 μM ligand): 12000 nM
Ki [2, 9]: 14000 nM

COC(=O)C1CC2(C)C(c3ccco3)=CC1N(C(C)CN1CCCC1)C2C (racemic) [(±)-#11]
Ki [1, 8]: 400 nM

COC(=O)[C@@H]1C[C@]2(C)C(C)=C(C)[C@H]1N(Cc1cnn(CC(F)F)c1)[C@H]2C (racemic) [(±)-#56]
Ki [2, 7]: 8800 nM

COC(=O)[C@@H]1C[C@]2(C)C(c3cc(F)cc(F)c3)=C[C@H]1N(C1CN(CCO)C1)[C@H]2C (racemic) [(±)-#57]
Ki [1, 8]: 1100 nM
Ki [2, 7]: 5000 nM

COC(=O)C1CC2(C)C(c3cccc(O)c3)=CC1N(CCOc1c(C)cccc1C)C2C (stereo not drawn) [#017_E2]
KOR Signaling (murine KOR): Antagonist
MOR Signaling (human MOR): Antagonist

COC(=O)C1CC2(C)C(c3cccc(O)c3)=C(C)C1N(C)C2C (stereo not drawn) [#019_E2]
KOR Signaling (murine KOR): Inverse Agonist
MOR Signaling (human MOR): Antagonist

CCn1cc(CN2C3C=C(c4cccc(O)c4)C(C)(CC3C(=O)OC)C2C)cn1 (stereo not drawn) [#020_E2]
Ki [3]: 1.1 nM
EC50 (murine KOR): 380 nM
KOR Signaling (murine KOR): Antagonist
MOR Signaling (human MOR): Antagonist

CC1=C(c2cccc(O)c2)C2(C)CCC1N(CCc1ccccc1)C2C (stereo not drawn) [#030_E2]
KOR Signaling (murine KOR): Inverse Agonist
MOR Signaling (human MOR): Antagonist

CCn1cc(CN2C3C(C)=C(c4cccc(O)c4)C(C)(CC3C(=O)OC)C2C)cn1 (stereo not drawn) [#031_E2]
KOR Signaling (murine KOR): Inverse Agonist
MOR Signaling (human MOR): Antagonist

COC(=O)[C@@H]1C[C@]2(C)C(c3ccc(O)c(OC)c3)=C[C@H]1N(CCN)[C@H]2C [(+)-#33]
Ki [1, 8]: 1200 nM
Ki [2, 7]: 980 nM

CN1CC[C@]23c4c5ccc(O)c4O[C@H]2[C@@H](O)C=C[C@H]3[C@H]1C5 [morphine]
Tail flick latency (C56BL/6 mice [4]; 20 mg/kg i.p.): significantly increased tail flick latency

C=CCN1CC[C@]23c4c5ccc(O)c4O[C@H]2C(=O)CC[C@@]3(O)[C@H]1C5 [naloxone]
i.p. dose required to return tail flick latency to baseline levels (C56BL/6 mice [4]; blocking of 20mg/kg morphine induced analgesia, dose response): 10 mg/kg
Precipitated opioid withdrawal symptoms (jumps, wet-dog shakes, rearing, forepaw shakes) (C56BL/6 mice [5]): induced behaviors consistent with aversive withdrawal
Time spent in the antagonist-paired chamber pre- vs post-conditioning (C56BL/6 mice [6]; morphine tolerant mice, withdrawal precipitated by the antagonist): marked decrease in time spent in the antagonist-paired chamber; also recorded: significantly less time in the chamber
CPA score (C56BL/6 mice [6]; test minus pretest time in drug-paired compartment): avoided the treatment compartment to a greater extent

Reference: article PMC12123460 (ACS Central Science, 2025)
